pIC50: −log10 of the molar value.
How the values were obtained:
[1] = test system: MIA PaCa-2 (KRAS G12C) cells; test: KRAS_G12C cellular pERK HTRF assay; format: cell-based, human; settings: Homo sapiens, MIA PaCa-2; phospho-ERK1/2 HTRF, 4 hours incubation; read-out: G12C_pERK (KRAS_G12C pERK assay IC50)
Procedure: MIA PaCa-2 (KRAS G12C; ATCC® CRL-1420), A427 (KRAS G12D; ATCC® HTB53), HPAF-II (KRAS G12D; ATCC® CRL-1997) and NCI-H838 (KRAS WT; ATCC® CRL-5844) cells are purchased from ATCC and maintained in RPMI 1640 media supplemented with 10% FBS (Gibco/Life Technologies). The cells are plated at 5000 cells per well (8 uL) into Greiner 384-well low volume, flat-bottom, tissue culture treated white plates and incubated overnight at 37° C., 5% CO2. The next morning, test compound stock solutions are diluted in media at 3× the final concentration, and 4 uL are added to the cells. The plate is mixed by gentle rotation for 30 seconds (250 rpm) at room temperature. The cells are incubated with the KRAS G12C and G12D compounds for 4 hours or 2 hours respectively at 37° C., 5% CO2.
4 uL of 4× lysis buffer with blocking reagent (1:25) (Cisbio) are added to each well and plates are rotated gently (300 rpm) for 30 minutes at room temperature. 4 uL per well of Cisbio anti Phospho-ERK 1/2 d2 is mixed with anti Phospho-ERK 1/2 Cryptate (1:1) are added to each well, mixed by rotation and incubated overnight in the dark at room temperature. Plates are read on the Pherastar plate reader at 665 nm and 620 nm wavelengths. IC50 determination is performed by fitting the curve of inhibitor percent inhibition versus the log of the inhibitor concentration using the GraphPad Prism 7 software.

KRAS G12C = KRAS G12C (Homo sapiens, UniProt P01116, G12C); test: KRAS G12C GDP-GTP exchange assay (bodipy-GDP for GppNHp, with SOS1); format: biochemical; settings: 2.5 nM bodipy-loaded KRAS G12C, 2 hours pre-incubation with inhibitor, 2 hours after GppNHp-SOS1; read-out: G12C_exchange (KRAS_G12C exchange assay IC50)
KRAS G12C, sequence (P01116 1-188 isoform P01116-2 G12C): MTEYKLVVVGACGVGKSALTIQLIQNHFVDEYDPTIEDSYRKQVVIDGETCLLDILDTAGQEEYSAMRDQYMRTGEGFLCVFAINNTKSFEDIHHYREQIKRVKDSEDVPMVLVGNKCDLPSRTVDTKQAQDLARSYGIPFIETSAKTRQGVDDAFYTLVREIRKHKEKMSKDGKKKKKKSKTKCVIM
Procedure: The inhibitor potency of the exemplified compounds was determined in a fluorescence based guanine nucleotide exchange assay, which measures the exchange of bodipy-GDP (fluorescently labeled GDP) for GppNHp (Non-hydrolyzable GTP analog) to generate the active state of KRAS in the presence of SOS1 (guanine nucleotide exchange factor). Inhibitors were serially diluted in DMSO and a volume of 0.1 μL was transferred to the wells of a black low volume 384-well plate. 5 μL/well volume of bodipy-loaded KRAS G12C diluted to 5 nM in assay buffer (25 mM Hepes pH 7.5, 50 mM NaCl, 10 mM MgCl2 and 0.01% Brij-35) was added to the plate and pre-incubated with inhibitor for 2 hours at ambient temperature. Appropriate controls (enzyme with no inhibitor or with a G12C inhibitor (AMG-510)) were included on the plate. The exchange was initiated by the addition of a 5 μL/well volume containing 1 mM GppNHp and 300 nM SOS1 in assay buffer. The 10 μL/well reaction concentration of the bodipy-loaded KRAS G12C, GppNHp, and SOS1 were 2.5 nM, 500 uM, and 150 nM, respectively. The reaction plates were incubated at ambient temperature for 2 hours, a time estimated for complete GDP-GTP exchange in the absence of inhibitor. For the KRAS G12D and G12V mutants, similar guanine nucleotide exchange assays were used with 2.5 nM as final concentration for the bodipy loaded KRAS proteins and with 4 hours and 3 hours incubation after adding GppNHp-SOS1 mixture for G12D and G12V respectively. A cyclic peptide described to selectively bind G12D mutant (Sakamoto et al., BBRC 484.3 (2017), 605-611) or internal compounds with confirmed binding were used as positive controls in the assay plates. Fluorescence intensities were measured on a PheraStar plate reader instrument (BMG Labtech) with excitation at 485 nm and emission at 520 nm.
Either GraphPad prism or XLfit was used to analyze the data. The IC50 values were derived by fitting the data to a four parameter logistic equation producing a sigmoidal dose-response curve with a variable Hill coefficient. Prism equation: Y=Bottom+(Top−Bottom)/(1+10^((Log IC50−X)*Hill slope)); XLfit equation: Y=(A+((B−A)/(1+((X/C)^D)))) where X is the logarithm of inhibitor concentration and Y is the response.

SMILES	pIC50 [1]	pIC50 (KRAS G12C)
Cc1cc2c(nc(OC[C@@H]3CCCN3C)c3cnn([C@H]4CCN(C(=O)/C=C/CF)[C@H](CC#N)C4)c32)c(F)c1-c1cccc2cccc(C#N)c12 (single isomer, unassigned) [Example 51a]	≥ 7.00	≥ 7.00
C=C(F)C(=O)N1CC[C@H](n2ncc3c(OC[C@@H]4CCCN4C)nc4c(F)c(-c5cccc6cccc(C#N)c56)c(C)cc4c32)C[C@H]1CC#N (single isomer, unassigned) [Example 52a]	≥ 7.00	≥ 7.00
CC#CC(=O)N1CC[C@H](n2ncc3c(OC[C@@H]4CCCN4C)nc4c(F)c(-c5cccc6cccc(C#N)c56)c(C)cc4c32)C[C@H]1CC#N (single isomer, unassigned) [Example 53a]	≥ 7.00	≥ 7.00
COC/C=C/C(=O)N1CC[C@H](n2ncc3c(OC[C@@H]4CCCN4C)nc4c(F)c(-c5cccc6cccc(C#N)c56)c(C)cc4c32)C[C@H]1CC#N (single isomer, unassigned) [Example 54a]	≥ 7.00	≥ 7.00
Cc1cc2c(nc(O[C@@H](C)[C@@H]3CCCN3C)c3cnn([C@H]4CCN(C(=O)/C=C/CF)[C@H](CC#N)C4)c32)c(F)c1-c1cccc2cccc(C#N)c12 (single isomer, unassigned) [Example 55b]	≥ 7.00	≥ 7.00
C=C(F)C(=O)N1CC[C@H](n2ncc3c(O[C@@H](C)[C@@H]4CCCN4C)nc4c(F)c(-c5cccc6cccc(C#N)c56)c(C)cc4c32)C[C@H]1CC#N (single isomer, unassigned) [Example 56b]	≥ 7.00	≥ 7.00
COC/C=C/C(=O)N1CC[C@H](n2ncc3c(O[C@@H](C)[C@@H]4CCCN4C)nc4c(F)c(-c5cccc6cccc(C#N)c56)c(C)cc4c32)C[C@H]1CC#N (single isomer, unassigned) [Example 57b]	≥ 7.00	≥ 7.00
Cc1cc2c(nc(N3CC(C)(N(C)C)C3)c3cnn([C@H]4CCN(C(=O)/C=C/CF)[C@H](CC#N)C4)c32)c(F)c1-c1cccc2cccc(C#N)c12 (single isomer, unassigned) [Example 58a]	≥ 7.00	≥ 7.00
C=C(F)C(=O)N1CC[C@H](n2ncc3c(N4CC(C)(N(C)C)C4)nc4c(F)c(-c5cccc6cccc(C#N)c56)c(C)cc4c32)C[C@H]1CC#N (single isomer, unassigned) [Example 59a]	≥ 7.00	≥ 7.00
CC#CC(=O)N1CC[C@H](n2ncc3c(N4CC(C)(N(C)C)C4)nc4c(F)c(-c5cccc6cccc(C#N)c56)c(C)cc4c32)C[C@H]1CC#N (single isomer, unassigned) [Example 60a]	≥ 7.00	≥ 7.00
COC/C=C/C(=O)N1CC[C@H](n2ncc3c(N4CC(C)(N(C)C)C4)nc4c(F)c(-c5cccc6cccc(C#N)c56)c(C)cc4c32)C[C@H]1CC#N (single isomer, unassigned) [Example 61a]	≥ 7.00	≥ 7.00
Cc1cc2c(nc(N3CC(C)(N(C)C)C3)c3cnn([C@H]4CCN(C(=O)/C=C/CN(C)C)[C@H](CC#N)C4)c32)c(F)c1-c1cccc2cccc(C#N)c12 (single isomer, unassigned) [Example 62a]	≥ 7.00	≥ 7.00
Cc1cc2[nH]ncc2c(-c2c(C)cc3c(nc(N4CC(C)(N(C)C)C4)c4cnn([C@H]5CCN(C(=O)/C=C/CF)[C@H](CC#N)C5)c43)c2F)c1C (single isomer, unassigned) [Example 64a]	≥ 7.00	≥ 7.00
COC/C=C/C(=O)N1CC[C@H](n2ncc3c(N4CC(C)(N(C)C)C4)nc4c(F)c(-c5c(C)c(C)cc6[nH]ncc56)c(C)cc4c32)C[C@H]1CC#N (single isomer, unassigned) [Example 65a]	≥ 7.00	≥ 7.00
Cc1cc2[nH]ncc2c(-c2c(C)cc3c(nc(N4CC(C)(N(C)C)C4)c4cnn([C@H]5CCN(C(=O)/C=C/CN(C)C)[C@H](CC#N)C5)c43)c2F)c1C (single isomer, unassigned) [Example 66a]	≥ 7.00	≥ 7.00
Cc1cc2[nH]ncc2c(-c2c(C)cc3c(nc(O[C@@H](C)[C@@H]4CCCN4C)c4cnn([C@H]5CCN(C(=O)/C=C/CF)[C@H](CC#N)C5)c43)c2F)c1C (single isomer, unassigned) [Example 67b]	≥ 7.00	≥ 7.00
C=C(F)C(=O)N1CC[C@H](n2ncc3c(O[C@@H](C)[C@@H]4CCCN4C)nc4c(F)c(-c5c(C)c(C)cc6[nH]ncc56)c(C)cc4c32)C[C@H]1CC#N (single isomer, unassigned) [Example 68b]	≥ 7.00	≥ 7.00
CC#CC(=O)N1CC[C@H](n2ncc3c(O[C@@H](C)[C@@H]4CCCN4C)nc4c(F)c(-c5c(C)c(C)cc6[nH]ncc56)c(C)cc4c32)C[C@H]1CC#N (single isomer, unassigned) [Example 69b]	≥ 7.00	≥ 7.00
COC/C=C/C(=O)N1CC[C@H](n2ncc3c(O[C@@H](C)[C@@H]4CCCN4C)nc4c(F)c(-c5c(C)c(C)cc6[nH]ncc56)c(C)cc4c32)C[C@H]1CC#N (single isomer, unassigned) [Example 70b]	≥ 7.00	≥ 7.00
Cc1cc2[nH]ncc2c(-c2c(C)cc3c(nc(O[C@@H](C)[C@@H]4CCCN4C)c4cnn([C@H]5CCN(C(=O)/C=C/CN(C)C)[C@H](CC#N)C5)c43)c2F)c1C (single isomer, unassigned) [Example 71b]	≥ 7.00	≥ 7.00
Cc1cc2[nH]ncc2c(-c2c(Cl)cc3c(nc(N4CC(N(C)C)C4)c4cnn([C@H]5CCN(C(=O)/C=C/CF)[C@H](CC#N)C5)c43)c2F)c1C (single isomer, unassigned) [Example 72a]	≥ 7.00	≥ 7.00
C=C(F)C(=O)N1CC[C@H](n2ncc3c(N4CC(N(C)C)C4)nc4c(F)c(-c5c(C)c(C)cc6[nH]ncc56)c(Cl)cc4c32)C[C@H]1CC#N (single isomer, unassigned) [Example 73a]	≥ 7.00	≥ 7.00
CC#CC(=O)N1CC[C@H](n2ncc3c(N4CC(N(C)C)C4)nc4c(F)c(-c5c(C)c(C)cc6[nH]ncc56)c(Cl)cc4c32)C[C@H]1CC#N (single isomer, unassigned) [Example 74a]	≥ 7.00	≥ 7.00
COC/C=C/C(=O)N1CC[C@H](n2ncc3c(N4CC(N(C)C)C4)nc4c(F)c(-c5c(C)c(C)cc6[nH]ncc56)c(Cl)cc4c32)C[C@H]1CC#N (single isomer, unassigned) [Example 75a]	≥ 7.00	≥ 7.00
Cc1cc2[nH]ncc2c(-c2c(Cl)cc3c(nc(N4CC(N(C)C)C4)c4cnn([C@H]5CCN(C(=O)/C=C/CN(C)C)[C@H](CC#N)C5)c43)c2F)c1C (single isomer, unassigned) [Example 76a]	≥ 7.00	≥ 7.00
C=C(F)C(=O)N1CC[C@H](n2ncc3c(OCC4CCCN4C)nc4c(F)c(-c5c(C)c(C)cc6[nH]ncc56)c(Cl)cc4c32)C[C@H]1CC#N (single isomer, unassigned) [Example 77a]	≥ 7.00	≥ 7.00
CC#CC(=O)N1CC[C@H](n2ncc3c(OC[C@@H]4CCCN4C)nc4c(F)c(-c5c(C)c(C)cc6[nH]ncc56)c(Cl)cc4c32)C[C@H]1CC#N (single isomer, unassigned) [Example 78a]	≥ 7.00	≥ 7.00

From US20210355121A1, “FUSED TRICYCLIC KRAS INHIBITORS” (Incyte Corporation, priority 2020, published 2021)
